From patent US20170304280A1, “SYNERGISTIC COMBINATIONS STIMULATING THE EXPRESSION OF SIRTUIN 1” (priority 2014, published 2017)

Tested on: SIRT 1
Test: Western blot analysis of the expression of SIRT 1 in HeLa cells
Type: cell-based, Human
Conditions: for % 3 h increase (SIRT 1 expression compared to control) / % 6 h increase (SIRT 1 expression compared to control) / % 24 h increase (SIRT 1 expression compared to control): HeLa cells; for increase of SIRT 1 expression relative to the other groups: Table 1, especially with respect to resveratrol, reference standard
Protocol: The synergistic effects of co-administration of two substances on SIRT 1 stimulation, determined as a greater, statistically significant effect than the sum of the effects of the two substances individually administered, were evaluated in cell cultures by repeating the experiment at least 8 times for each single combination, either after a stimulation time of 3, 6 and 24 hours (more than 300 total trials), as described in the following detailed description.
Human Cervical Carcinoma cells (HeLa) were cultured in DMEM supplemented with 10% (v/v) fetal bovine serum, 1% antibiotics (penicillin and streptomycin) and 1% L-glutamine at 37° C. in a humidified air atmosphere with 5% (v/v) CO2.
The cells were grown to a confluence of 80%, were then trypsinized, counted with a Burker chamber and plated (100,000 cells /well). The day of the experiment, the cells were treated with the substances at the different concentrations and left in incubation for 3, 6 and 24 hours. The substances were solubilized in DMSO, used at concentrations not toxic for cells (v/v<0.5%).
At the end of the incubation periods, the cells were washed with PBS (pH 7.4) and collected in a 1.5 ml microtube with 0.130 ml of lysis buffer (RIPA buffer) containing a protease inhibitor cocktail, a phosphatase inhibitor cocktail, PMSF, sodium orthovanadate and sodium pyrophosphate.
They were lysed by three freezing-thawing cycles and then the supernatant were recovered.
A part of the lysate was used to quantified the protein content with the spectrophotometer (Thermo Scientific Multiskan FC, Thermo Scientific), using a commercial kit based on the Bradford assay. The final concentrations are expressed in μg/μl.
The cell lysates (25 μg/μl) were combined with the appropriate amount of 1× SDS sample buffer (0.5 M Tris-HCl pH 6.8, 20% SDS, 10% [vol/vol] glycerol, 5% [vol/vol] β-mercaptoethanol, 0.2% bromophenol blue), heated at 95° C. for 5 min, separated by SDS-PAGE and then transferred to polyvinylidene difluoride membranes (PVDF).
For the electrophoretic separation was used a polyacrylamide gel, composed of two parts, a lower one called “Running gel”, containing acrylamide (acrylic acid amide) to 12% (acrylamide/bis-acrylamide 30%), in which occurs the separation of the proteins, and an upper one, called loading gel or “Stacking gel”, containing acrylamide to 10%, where were built the wells for sample loading.
The electrophoretic run was performed by passing a current at 200V for about 1 hour, or until when the front has not reached the bottom of the gel.
Once running, the proteins were transferred from the gel to a […] membrane (PVDF).
The transfer was performed by passing a voltage of 100V for 1 hour.
The membranes were blocked with 5% (wt/vol) nonfat dry milk in Tris-buffered saline with Tween buffer (T-TBS) (20 mmol/1 Tris-Hcl, pH 7.6, 0.138 mol/l NaCl, and 0.1% Tween 20) for 1 hour under stirring and at room temperature.
The expression of SIRT 1 was analyzed incubating the membranes in the presence of specific primary antibodies and, subsequently, of secondary peroxidase-conjugated antibodies, suitable diluted in 5% BSA in T-TBS. Primary Antibodies were used overnight at 4° C. at the following conditions: anti-SIRT 1, rabbit (1:1000) and anti-β-actine, mouse (1:1000). Secondary antibodies were instead used at this dilution: goat anti-rabbit (1:10000) for SIRT 1 and for β-actin.
During this phase the primary antibody binds to species-specific secondary antibody conjugated to a peroxidase enzyme that will bind, in the next step, a specific substrate (luminol) for the reaction of chemiluminescence.
Later, were performed a series of washes with TBS-Tween under stirring, in order to remove all the unbound secondary antibody.
Bound antibodies were visualized using Chemiluminescence Luminata Crescendo Western HRP Substrate and bands were detected and analyzed by the Kodak Image Station 440CF (Eastman Kodak, Rochester, N.Y., USA).

Row | Compound | % 3 h increase (SIRT 1 expression compared to control) (5 μM) [%] | % 6 h increase (SIRT 1 expression compared to control) (5 μM) [%] | % 24 h increase (SIRT 1 expression compared to control) (5 μM) [%] | % 3 h increase (SIRT 1 expression compared to control) (10 μM) [%] | % 6 h increase (SIRT 1 expression compared to control) (10 μM) [%] | % 24 h increase (SIRT 1 expression compared to control) (10 μM) [%] | increase of SIRT 1 expression relative to the other groups | % 3 h increase (SIRT 1 expression compared to control) (25 μM) [%] | % 6 h increase (SIRT 1 expression compared to control) (25 μM) [%] | % 24 h increase (SIRT 1 expression compared to control) (25 μM) [%] | % 3 h increase (SIRT 1 expression compared to control) (50 μM) [%] | % 6 h increase (SIRT 1 expression compared to control) (50 μM) [%] | % 24 h increase (SIRT 1 expression compared to control) (50 μM) [%] | % 3 h increase (SIRT 1 expression compared to control) (20 μM) [%] | % 6 h increase (SIRT 1 expression compared to control) (20 μM) [%] | % 24 h increase (SIRT 1 expression compared to control) (20 μM) [%]
1 | (+)-Catechin | 44 | 44 | 46 | 54 | 54 | 57 | greater increase than the other groups |  |  |  |  |  |  |  |  | 
2 | O.O.O=c1c(O)c(-c2ccc(O)c(O)c2)oc2cc(O)cc(O)c12 [Quercetin, Quercetin Dihydrate] | 21 | 22 | 29 | 27 | 27 | 54 |  |  |  |  |  |  |  |  |  | 
3 | COc1cc(/C=C/C(=O)O)ccc1O [Ferulic Acid] |  |  |  |  |  |  | greater increase than the other groups | 43 | 44 | 66 | 57 | 58 | 75 |  |  | 
4 | COc1ccc2cc3[n+](cc2c1OC)CCc1cc2c(cc1-3)OCO2 [Berberine, Berberine Chloride Hydrate] | 63 | 65 | 75 | 65 | 64 | 75 | greater increase than the other groups |  |  |  |  |  |  |  |  | 
5 | OCCc1ccc(O)cc1 [Tyrosol] |  |  |  | 53 | 62 | 68 | greater increase than the other groups |  |  |  |  |  |  | 76 | 93 | 101
6 | Oc1ccc(C=Cc2cc(O)cc(O)c2)cc1 [Resveratrol, reference compound] | 46 | 47 | 68 | 47 | 48 | 69 |  |  |  |  |  |  |  |  |  | 
